# Source: US20180305424A1, “Methods of Inducibly Targeting Chromatin Effectors and Compositions for Use in the Same” (The Board of Trustees of the Leland Stanford Junior …, priority 2015, published 2018)
# Values joined by “and” are separate entries in the source; they are usually repeats but may differ in a detail not shown here. Equal values may be shown once.
# Tests used:
# Type in all cases: cell-based, mouse
# [1] = system: BAF complex tethering to the Oct4 locus in CiA MEF cells; assay: OFF/washout experiments: FK1012 competition of rapamycin-tethered BAF complexes, ChIP-qPCR
# Experimental: Briefly, adherent CiA MEF cells were treated with 3 nM (final) rapamycin (sirolimus; Sellekchem #S1039) (ON experiments) or 3 nM rapamycin followed by 30 nM FK1012 (OFF/washout experiments) for prescribed times (2.5 minutes-24 hours). For acute time points, cells were harvested rapidly by washing media out once with PBS, scraping cells off plates with a cell scraper, resuspending in CiA fix buffer, and formaldehyde fixing for subsequent ChIP analyses.
# (§1) Briefly, for rapid time course assays, adherent CiA MEF cells were washed once in PBS, scraped off plates into fix buffer (50 mM HEPES, 1 mM EDTA, 0.5 mM EGTA, and 100 mM NaCl), resuspended, and immediately formaldehyde fixed. After cross-linking, cells (7-10×10̂6) were washed and sonicated for 13.5 minutes using a Covaris E220 Sonicator (Covaris, Inc., Woburn, Mass.). Chromatin input was reverse crosslinked and evaluated for shearing efficiency and 100-150 μg of chromatin stock was used per immunoprecipitation reaction. […]
# (§2) CiA knock-in locus-specific primers were generated with plus (+) and minus (−) direction distances calculated from the middle of the ZFHD1 recruitment domain as well as […] distances calculated from the Oct4 transcription start site (TSS). Briefly, enrichment (bound over input) averages and standard deviations were calculated over n=5 repeat experiments for each primer set. […]
# [2] = system: DNA accessibility at the Oct4 locus in CiA Oct4 MEF cells; assay: Transposase (Tn5) chromatin accessibility assay after FK1012 addition; conditions: post-addition of FK1012 (removal of the BAF complex)
# Experimental: Following various recruitment conditions, 5×10̂4 CiA Oct4 MEF cells were harvested, washed once in PBS, once in RSB buffer (10 mM Tris-HCl, pH 7.4, 10 mM NaCl, 3 mM MgCl2), and centrifuged at 500×g for 5 minutes at 4 degrees C. Cells were then lysed in lysis buffer (500 ul RSB buffer+5 ul 10% NP-40) for 5 minutes on ice, spun at 500×g for 5 minutes, resuspended in Tagment DNA/Enzyme Buffer Mix (Illumina Nextera Sample Preparation Kit, Cat. # FC-121-1030), and incubated for 30 minutes at 37° C. Following Tn5 transposase enzyme reaction, DNA was purified using Quiagen MinElute PCR Purification Kit (Cat #28004). Transposed DNA fragments were amplified via qPCR to the appropriate number of cycles and library was purified using a Quiagen PCR Cleanup Kit eluted in 20 ul of elution buffer (10 mM Tris Buffer, pH 8.0). CiA locus-specific qPCR was performed using primers in Supplemental Table 2.
# [3] = system: BAF complex recruitment to the modified Oct4 (Pou5f1) locus in CiA MEF cells; assay: Recruitment assay (ON): rapamycin-induced BAF complex recruitment to the CiA Oct4 locus, ChIP-qPCR; conditions: 24 hours of rapamycin treatment (3 nM); Frb-V5-tagged BAF subunit fusions; CiA MEFs
# Excerpt: CiA mouse embryonic fibroblasts (MEFs) containing a modified Oct4 promoter (with 12×ZFHD1 and 6×GAL4 sites upstream of the promoter) were generated, cultured and maintained as previously described (Hathaway et al., “Dynamics and memory of heterochromatin in living cells,” Cell (2012) 149:1447-1460). Briefly, lentiviral delivery constructs bearing an EF1-alpha promoter and either puromycin or blasticidin resistance were generated to contain the constructs described here (FIG. 1a). To generate recruitable forms of BAF complexes, individual subunits (SS18, BRG, BAF47, BAF57) were N-terminally fused to Frb-V5. […]
# as §1, with “After cross-linking, cells (7-10×10̂6) were washed and sonicated for 13.5 minutes using a Covaris E220 Sonicator (Covaris, Inc., Woburn, Mass.).” left out
# as §2
Compound,"Decrease in BAF complex tethering to the Oct4 locus, FK1012 addition versus rapamycin washout (media change) ([1]; 3 nM rapamycin followed by 30 nM FK1012)","Time at which PRC2 (Ezh2) and PRC1 (Ring1B) began to reappear ([1]; post-addition of FK1012, paralleled by reappearance of H3K27Me3 and H2AUb1) [h]",Time at which inaccessible chromatin began to reform [2] [h],BAF complex recruitment (fold enrichment over baseline by ChIP-qPCR) [3]
FK1012,"more rapid, robust decreases",~2,2.5 to 5,–
CO[C@H]1C[C@@H]2CC[C@@H](C)[C@@](O)(O2)C(=O)C(=O)N2CCCC[C@H]2C(=O)O[C@H]([C@H](C)C[C@@H]2CC[C@@H](O)[C@H](OC)C2)CC(=O)[C@H](C)/C=C(\C)[C@@H](O)[C@@H](OC)C(=O)[C@H](C)C[C@H](C)/C=C/C=C/C=C/1C [rapamycin],–,–,–,20-40 fold and 40-60 fold
